Measured values as given in ChEMBL document CHEMBL1201862, “PubChem BioAssay data set” (2004).
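Five compound concentrations were applied to cells in 96-well plates for 48 hours; endpoints were derived by simple linear interpolation of the resulting dose-response curve. Abbreviation: GI50, concentration required for 50% inhibition of growth.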 Calls of active or inactive are those of the source. Cut-off read from the data, not from the text of the source: active = GI50 up to about 1.1 µM and inactive = higher.

Tests used:
Assay in all cases: DTP human tumour cell line panel, 48 h
MDA-N = system: MDA-N
HL-60 = system: HL-60
RPMI-8226 = system: RPMI-8226
OVCAR-4 = system: OVCAR-4
OVCAR-5 = system: OVCAR-5
786-0 = system: 786-0
Hs-578T = system: Hs-578T
A549 = system: A549
TK-10 = system: TK-10
SF-539 = system: SF-539
LOX IMVI = system: LOX IMVI
COLO 205 = system: COLO 205
UACC-62 = system: UACC-62
SK-OV-3 = system: SK-OV-3
HT-29 = system: HT-29
A498 = system: A498
SW-620 = system: SW-620
EKVX = system: EKVX
UACC-257 = system: UACC-257
MOLT-4 = system: MOLT-4

Measured: GI50

CCN(CC)CCCNc1c2c(Cl)cc(Cl)cc2nc2nc(O)nc(C)c12
inactive: MDA-N 18.6 µM | HL-60 57.4 µM | RPMI-8226 > 10 µM | OVCAR-4 33.9 µM | OVCAR-5 19.9 µM | 786-0 18.7 µM | Hs-578T 47.5 µM | A549 42.9 µM | TK-10 > 100 µM | SF-539 > 100 µM | LOX IMVI 23.1 µM | COLO 205 45.3 µM | UACC-62 68.2 µM | SK-OV-3 25.6 µM | HT-29 18 µM | A498 > 100 µM | SW-620 17.8 µM | EKVX > 100 µM | UACC-257 43 µM | MOLT-4 20.7 µM

O=C1c2ccccc2C(=O)N1CC1(C(=O)O)NCCS1(=O)=O (stereo not given)
inactive: MDA-N > 100 µM | HL-60 > 100 µM | RPMI-8226 > 100 µM | OVCAR-4 > 100 µM | OVCAR-5 > 100 µM | 786-0 > 100 µM | Hs-578T > 100 µM | A549 > 100 µM | TK-10 > 100 µM | SF-539 > 100 µM | LOX IMVI > 100 µM | COLO 205 > 100 µM | UACC-62 > 100 µM | SK-OV-3 > 100 µM | HT-29 > 100 µM | A498 > 100 µM | SW-620 > 100 µM | EKVX 91.4 µM | UACC-257 > 100 µM | MOLT-4 > 100 µM

C/C(CC/C(C)=N/O)=N\O
inactive: MDA-N > 100 µM | HL-60 > 100 µM | RPMI-8226 > 100 µM | OVCAR-4 > 100 µM | OVCAR-5 > 100 µM | 786-0 > 100 µM | Hs-578T > 100 µM | A549 > 100 µM | TK-10 > 100 µM | SF-539 > 100 µM | LOX IMVI > 100 µM | COLO 205 > 100 µM | UACC-62 > 100 µM | SK-OV-3 > 100 µM | HT-29 > 100 µM | A498 > 100 µM | SW-620 > 100 µM | EKVX > 100 µM | UACC-257 > 100 µM | MOLT-4 > 100 µM

CCCCC[C@H]1CC=CC(=O)O1
inactive: MDA-N 5.02 µM | HL-60 2.88 µM | RPMI-8226 2.86 µM | OVCAR-4 5.7 µM | OVCAR-5 24 µM | 786-0 3.1 µM | Hs-578T 7.71 µM | A549 5.86 µM | TK-10 9.48 µM | SF-539 1.56 µM | LOX IMVI 4.65 µM | COLO 205 3.53 µM | UACC-62 10.5 µM | SK-OV-3 10.8 µM | HT-29 4.03 µM | A498 1.82 µM | SW-620 3.41 µM | EKVX 17.1 µM | UACC-257 12.1 µM | MOLT-4 2.34 µM

N#Cc1sc2c(c1OC(=O)c1ccc(Cl)cc1)c(=O)n(-c1ccccc1)c(=S)n2-c1ccccc1
inactive: MDA-N 20.3 µM | HL-60 19.4 µM | RPMI-8226 17.7 µM | OVCAR-4 23.3 µM | OVCAR-5 25.8 µM | 786-0 20.5 µM | Hs-578T 15.6 µM | A549 31.4 µM | TK-10 23.3 µM | SF-539 20.8 µM | LOX IMVI 17.1 µM | COLO 205 18.5 µM | UACC-62 18.2 µM | SK-OV-3 29.9 µM | HT-29 22.4 µM | A498 21.5 µM | SW-620 21.2 µM | EKVX 21 µM | UACC-257 27.3 µM | MOLT-4 42.3 µM

O=[N+]([O-])c1ccc2[nH]nc(OCc3ccccn3)c2c1
inactive: MDA-N > 100 µM | HL-60 > 100 µM | RPMI-8226 > 100 µM | OVCAR-4 > 100 µM | OVCAR-5 > 100 µM | 786-0 > 100 µM | Hs-578T 35.2 µM | A549 > 100 µM | TK-10 47.2 µM | SF-539 > 100 µM | LOX IMVI > 100 µM | COLO 205 > 100 µM | UACC-62 > 100 µM | SK-OV-3 73.8 µM | HT-29 > 100 µM | A498 > 100 µM | SW-620 > 100 µM | EKVX > 100 µM | UACC-257 > 100 µM | MOLT-4 > 100 µM

CN(C)CCNc1ccc2nnn3c4ccccc4c(=O)c1c23
inactive: MDA-N 2.81 µM | HL-60 3.44 µM | RPMI-8226 2.92 µM | OVCAR-4 3.08 µM | OVCAR-5 3.72 µM | 786-0 3.27 µM | Hs-578T 3.3 µM | A549 2.26 µM | TK-10 3.31 µM | SF-539 4.75 µM | LOX IMVI 1.62 µM | COLO 205 1.34 µM | UACC-62 3.39 µM | SK-OV-3 7.87 µM | HT-29 2.01 µM | A498 2.59 µM | SW-620 1.59 µM | EKVX 3.78 µM | UACC-257 3.46 µM | MOLT-4 1.27 µM

CN(C)CCCNc1c2ccccc2[n+]([O-])c2ccccc12
inactive: MDA-N 68.7 µM | HL-60 51.8 µM | RPMI-8226 46.7 µM | OVCAR-4 27.1 µM | OVCAR-5 38.8 µM | 786-0 40.6 µM | Hs-578T 22.6 µM | A549 44.6 µM | TK-10 31.9 µM | SF-539 45.9 µM | LOX IMVI 31.2 µM | COLO 205 13.3 µM | UACC-62 > 100 µM | SK-OV-3 82.6 µM | HT-29 7.06 µM | A498 54.8 µM | SW-620 39.9 µM | EKVX 40.6 µM | UACC-257 56.8 µM | MOLT-4 42.4 µM
